Source: a melting point compilation (Tetko et al.; mined from patent text by program, amines drawn as free bases though some values may be those of a salt)

| SMILES | melting point [°C] |
| --- | --- |
| Cc1ccc(C(O[Si](C)(C)C(C)(C)C)C(N)=O)cc1 (stereo unspecified) | 108 to 110 |
| CCc1cc2c(s1)-n1c(C)nnc1C(CCCC(=O)Nc1ccccc1)N=C2c1ccc(Cl)cc1 (stereo unspecified) | 238 to 240 |
| CC(=O)c1ccc(OCCCN2CCC(C(O)(c3ccc(F)cc3)c3ccc(F)cc3)CC2)c(C)c1 | 116 to 117 |
| c1ccc2c(c1)NCc1c(-c3noc(C4CC4)n3)ncn1-2 | 243 to 245 |
| CCCCOC(=O)C1C(C(C)=O)C(=O)N1C(Cc1ccc(OC)cc1)Cc1ccc(OC)cc1 (stereo unspecified) | 92.5 to 94 |
| COc1ccc(CCN(C)CCCCc2ccc(NC(=O)c3cccc4c(=O)c5cccc(OC)c5[nH]c34)cc2)cc1 | 182 |
| OCCCc1ccc(Nc2ncc(-c3ccccc3)s2)nc1 | 153 to 154 |
| COc1ccc2c(c1OC)C1=NCCN1C1C(c3ccccc3)CCN21 (stereo unspecified) | 171 |
| O=C1Nc2cccnc2N(C(=O)CCN2CCNCC2)c2ccccc21 | 280 to 282 |
| CC(Cc1cc(NC(=O)NCc2ccccc2)cc2ccoc12)NC(=O)OC(C)(C)C (stereo unspecified) | 167 to 168 |
| CN(C)C(=O)n1nc2cc(Cl)ccc2c1N | 178 to 180 |
| CC=C(C)c1c(-c2ccc(S(C)(=O)=O)cc2)cnn(CC(F)(F)F)c1=O | 175 to 180 |
| CCCc1nn(C)c2c(=O)n(CCCc3cccc(OC(C)(C)C(=O)O)c3)c(C)nc12 | 78 to 80 |
| O=C(O)CCSc1nnc(S)s1 | 105 to 108 |
| Cn1cc(-c2cc(-c3cnc4[nH]ccc4c3)ccn2)n(-c2ccc(C(C)(C)C#N)cc2)c1=O | 248 |
| Cc1onc(C(=O)c2c(F)cccc2F)c1NC(=O)CBr | 76 to 80 |
| CCOC(=O)c1cn(Cc2ccccc2)nc1OCc1ccc(OCc2nc(-c3ccccc3)oc2C)cc1 | 99 to 100 |
| O=C(O)c1cccc(Cn2cc(C3c4ccccc4C=Cc4ccccc43)c(=S)[nH]c2=O)c1 | > 230 |
| Cc1cccc(NC(=O)NCC(=O)N(CC(=O)OC(C)(C)C)c2ccccc2Nc2ccccc2)c1 | 180 |
| CCOC(=O)C1(C(=O)OCC)CCNC(=O)CC1 | 80 to 81 |
| O=S1(=O)NCCCN1CCc1ccncc1 | 124 to 125 |

| SMILES | melting point [°C] |
| --- | --- |
| CCCCCCCSc1nn2c(=O)c(OC)cnc2s1 | 68 to 71 |
| O=C(CC(Cc1ccccc1)C(=O)O)c1ccc(F)cc1 (single isomer, unassigned; (+)) | 88 |
| CCOC(=O)CC(=O)Nc1ncc(Br)s1 | 165 to 166 |
| CC(C)(C)C(O)c1ccc(Oc2ccccc2)cc1 (stereo unspecified) | 79 to 80 |
| CCOC(=O)C1=C(COCC(C)O)NC(C)=C(C(=O)OC)C1c1cccc(Cl)c1Cl (stereo unspecified) | 110 to 113 |
| CCCCCCCCCCCCCCCCCC(=O)c1c[nH]c2cc(C(=O)O)ccc12 | 268 to 270 |
| COc1ccc(C(=O)Nc2ccccc2)cc1NS(=O)(=O)c1ccc(F)cc1 | 209 to 211 |
| COc1ccc(OC)c(COc2ccc3nc[nH]c(=O)c3c2)c1 | 155 to 158 |
| CN(N)c1cc(N)nc(N)n1 | 214 to 217 |
| CCc1cn2nc(C)ccc2n1 | 53 to 55 |
| CCC(CC)c1nn(-c2ccc(Cl)cn2)cc1CCCOc1c(C)cccc1CC(=O)O | 106 to 107 |
| COC(C)COC(=O)Nc1ccc(C2=NNC(=O)CC2C)cc1 (stereo unspecified) | 173 to 175 |
| CC1(C)OC(=O)Nc2ccc(-c3ccc(F)c(Cl)c3)cc21 | 211 to 212 |
| C#CCOc1cccnc1Cl | 78 to 79 |
| CCCC(=O)c1c[nH]c2ccc(OC)cc2c1=O | 252 to 254 |
| Clc1ccc2c(ccn2C2=CCN(CCC3Cc4ccccc4C3)CC2)c1 | 93 to 94 |
| Cc1cc(-c2cc(C(F)(F)F)n3nccc3n2)ccc1C(F)(F)F | 87 |
| CCOC(=O)c1cc(C=O)cn1C | 75 to 76 |
| CC(C)(C)CNC=Nc1ccc(-c2c[nH]cn2)cc1Br | 151 to 154 |
| CCOC(=O)c1cc(C(C)C)n(C)n1 | 70.5 to 71 |
